Usually viability stands for a read-out of living cells in per cent, often relative to untreated cells.

These results are taken from patent US10189795B2, “Aryl amine substituted quinoxaline used as anticancer drugs” (priority 2014, dated 2019).

Test [1] relates to NCI-1703. Put plainly: cell viability of NCI-1703 cells, 1 and 10 uM of each erlotinib derivative, and IC50. In kind it is cell-based. The note with it: Homo sapiens. As for the experimental part: [Worded in the source for another cell line; this cell line is reported under the same test.] (§1) Sorafenib (Nexavar), erlotinib (Tarceva) and Paclitaxel were kindly provided by Bayer Pharmaceuticals (Pittsburgh, Pa., USA) and Roche Pharmaceuticals (Basel, Switzerland) respectively. Okadaic acid (OA) was purchased from Cayman Chemical (Ann Arbor, Mich., USA) and z-VAD-fmk was obtained from Sigma (St. Louis, Mo., USA). For in vitro studies, drugs at various concentrations were dissolved in dimethyl sulfoxide (DMSO), and added to cells in Dulbecco's modified Eagle's medium (DMEM) or Roswell Park Memorial Institute (RPMI) containing 5% fetal bovine serum (FBS).
(§2) The Sk-Hep1, PLC/PRF/5 (PLC) and Hep3B cell lines were obtained from American Type Culture Collection (ATCC; Manassas, Va., USA). The Huh-7 HCC cell line was obtained from the Health Science Research Resources Bank (HSRRB; Osaka, Japan; JCRB0403). Cells were maintained in DMEM supplemented with 10% FBS in a 37° C. humidified incubator in an atmosphere of 5% CO^2 in air.

Test [2] deals with A549. Put plainly: cell viability of A549 cells, 1 and 10 uM. It counts as cell-based. Conditions: Homo sapiens. As for the experimental part:
[Worded in the source for another cell line; this cell line is reported under the same test.] as §1, §2

The subject of test [3] is H2170. Put plainly: cell viability of H2170 cells, 1 and 10 uM. In kind it is cell-based. The note with it: Homo sapiens, NCI-H2170. The method, then:
[Worded in the source for another cell line; this cell line is reported under the same test.] as §1, §2

For test [4], the system named is NCI-H226. Put plainly: cell viability of NCI-H226 cells, 1 and 10 uM. It counts as cell-based. The note with it: Homo sapiens. The method, then: [Worded in the source for another cell line; this cell line is reported under the same test.] as §1, §2
Test [5] has as its system H358. In words: cell viability of H358 cells, 1 and 10 uM. It counts as cell-based. The note with it: Homo sapiens, NCI-H358. The method, then: [Worded in the source for another cell line; this cell line is reported under the same test.] as §1, §2
For test [6], the system named is H520. Put plainly: cell viability of H520 cells, 1 and 10 uM. It counts as cell-based. Conditions: Homo sapiens, NCI-H520. The method, then:
[Worded in the source for another cell line; this cell line is reported under the same test.] as §1, §2

In test [7] the test system is SW900. In words: cell viability of SW900 cells, 1 and 10 uM. In kind it is cell-based. Conditions: Homo sapiens. The method, then:
[Worded in the source for another cell line; this cell line is reported under the same test.] as §1, §2

The target of test [8] is T1, SET-PP2Ac binding (Homo sapiens, UniProt Q01105).
T1 construct: His; purchased Genway (SET-His); Abnova (PP2Ac-GST) GWB-ATG319; H00005515
T1 sequence (Q01105 1-277 isoform Q01105-2): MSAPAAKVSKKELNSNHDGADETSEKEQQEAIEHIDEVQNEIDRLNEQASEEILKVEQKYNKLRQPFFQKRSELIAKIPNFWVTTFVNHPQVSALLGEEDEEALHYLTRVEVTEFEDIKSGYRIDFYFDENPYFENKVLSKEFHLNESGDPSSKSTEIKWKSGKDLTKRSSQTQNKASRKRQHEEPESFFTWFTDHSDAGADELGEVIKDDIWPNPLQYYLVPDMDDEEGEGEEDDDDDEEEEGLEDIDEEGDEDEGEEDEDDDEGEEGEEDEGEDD
In words: disruption of SET-PP2Ac binding (surface plasmon resonance, co-IP). As for the experimental part:
Binding affinities of full-length SET and truncated SET to PP2Ac and the effect of the erlotinib derivatives of the present invention on disrupting SET and PP2Ac were analyzed. PP2Ac-GST recombinant protein was bound in the CMS chip pre-coated with GST-capture antibodies. Sensorgrams were generated by injecting several concentrations of the erlotinib derivatives of the present invention mixed with fixed-concentration of SET recombinant protein, or the mixture of different concentration of truncated SET proteins in a fixed-dose EMQA. PP2Ac-GST recombinant protein used for this experiment was purchased from Abnova (H00005515) and SET-His recombinant protein was obtained from Genway (GWB-ATG319).
EMQA reactivates PP2A by disrupting the binding of SET-PP2Ac. To validate the role of SET, the present invention generated Hep3B cells with ectopic expression of myc-tagged SET by transient transfection. […] With a fixed amount of PP2Ac coated on the CM chip, the present invention tested the effects of a fixed-dose of EMQA on interfering different proportions of full-length and truncated forms of SET proteins in SPR system. […] To validate the findings of this ex vivo system, the present invention generated cells with ectopic overexpression of these two truncated forms of Flag-tagged SET proteins by transient transfections.
On the technique in general: SPR reads the build-up and loss of mass on a sensor chip optically.

Test [9] deals with PP2A. In words: PP2A phosphatase activity (malachite green-phosphate assay in cell lysate). It counts as cell-based. The method, then:
The protein phosphatase activity in each cell lysate was determined by measuring the generation of free phosphate from threonine phosphopeptide using the malachite green-phosphate complex assay as described by the manufacturer (Upstate Biotechnology, Lake Placid, N.Y., USA). In brief, HCC cell lysates were first prepared in a low-detergent lysis buffer. […] After incubation for 10 min at 30° C., the malachite dye was added and free phosphate was measured by optical density at 650 nm. In order to avoid variation resulting from differences in the amount of immunoprecipitation protein between samples, the phosphatase activities were normalized to the amounts of PP2A immunoprecipitated, which were detected and quantified by immunoblot analysis for each treatment group.

For the molecule `CCc1cccc(Nc2nc3ccccc3nc2Nc2cccc(CC)c2)c1` [TD59, N^2,N^3-bis(3-ethylphenyl)quinoxaline-2,3-diamine], the viability at 1 µM worked out at 114 ± 7.4% in [1]; 164.6 ± 0.1% in test [2]; 88.4 ± 2.01% in [3]; 122 ± 2.6% in [4]; 117 ± 12.1% in test [5]; 88.3 ± 1.5% in test [6]. Also, the viability at 1 µM in [7] amounted to 110 ± 1.8%. Also, the viability at 10 µM in test [1] turned out to be 26.4 ± 0.7%; in test [2], 24.1 ± 3.9%; in test [3] it was 8.96 ± 1.43%; in [4], 32.5 ± 2.5%; in [5], 19 ± 1.5%; in [6] it was 0.41 ± 0.32%.

`FC(F)(F)c1cccc(Nc2nc3ccccc3nc2Nc2cccc(C(F)(F)F)c2)c1` [TD60, N^2,N^3-bis(3-(trifluoromethyl)phenyl)quinoxaline-2,3-diamine]: the viability at 1 µM in [1] turned out to be 51.9 ± 2.9%; in test [2], 91.3 ± 4%; in test [3], 72.3 ± 0.89%; in test [4], 92.5 ± 1.7%; in test [5], 55.3 ± 1.9%; in [6], 21.8 ± 1.52%. In test [7], the viability at 1 µM amounted to 19.3 ± 6.18%. Besides, the viability at 10 µM turned out to be 26.1 ± 0.8% in test [1]; 21.8 ± 1.4% in [2]; 0.41 ± 0.65% in [3]; 15.9 ± 1% in test [4]; 18.1 ± 1.3% in test [5]; 0.36 ± 0.18% in [6].

Turning to `N#CCc1ccc(Nc2nc3ccccc3nc2Nc2ccc(CC#N)cc2)cc1` [TD62, 2,2′-((quinoxaline-2,3-diylbis(azanediyl))bis(4,1-phenylene))diacetonitrile], the viability at 1 µM in test [1] is 112 ± 3.6%; in [2], 166 ± 23.1%; in test [3] it was 92.5 ± 1.41%; in test [4], 86 ± 2%; in test [5] it was 121 ± 2.2%; in test [6], 103 ± 1.7%. In addition, the viability at 1 µM in [7] was determined as 128 ± 1.8%. The viability at 10 µM came to 65.2 ± 0.6% in test [1]; 120 ± 29% in [2]; 85.3 ± 4.56% in test [3]; 90.1 ± 8.2% in test [4]; 97.4 ± 8.1% in test [5]; 100 ± 2.46% in [6]. For the same molecule, the viability at 10 µM in test [7] worked out at 128 ± 6.18%.

Regarding `FC(F)(F)c1cc(Nc2nc3ccccc3nc2Nc2ccc(Cl)c(C(F)(F)F)c2)ccc1Cl` [TD63, N^2,N^3-bis(4-chloro-3-(trifluoromethyl)phenyl)quinoxaline-2,3-diamine], the viability at 1 µM stood at 54.5 ± 5.5% in test [1]; 79.2 ± 7.8% in test [2]; 78.5 ± 1.28% in test [3]; 99.9 ± 4.3% in test [4]; 66.8 ± 8.5% in test [5]; 28.5 ± 0.58% in test [6]. Moreover, the viability at 1 µM in [7] amounted to 54.8 ± 3.35%. Besides, the viability at 10 µM is 28.8 ± 7.9% in [1]; 21.9 ± 2.2% in test [2]; 9.13 ± 0.63% in test [3]; 19.6 ± 0.4% in [4]; 16.2 ± 1.3% in test [5]; 0.45 ± 0.14% in [6]. The viability at 10 µM in test [7] turned out to be 3.28 ± 4.63%. The “minimal concentration to disrupt SET-PP2Ac binding” value in [8] is below 100 nM. In addition, in [9], the “minimal concentration for PP2A activation” value lay within 100 to 200 nM.

On to `FC(F)(F)c1cc(Nc2nc3ccccc3nc2Cl)ccc1Cl` [TD79, 3-chloro-N-(4-chloro-3-(trifluoromethyl)phenyl)quinoxalin-2-amine], for which the viability at 1 µM in test [1] was determined as 123.7 ± 0.9%; in [2], 96.5 ± 4.4%; in [3], 98.5 ± 1.56%; in [4] it was 131 ± 14.3%; in test [5], 114 ± 2.4%; in test [6], 96.6 ± 5.57%. In [7], the viability at 1 µM came out at 98.9 ± 3.79%. In addition, the viability at 10 µM in [1] came to 64.8 ± 4.5%; in test [2] it was 71.6 ± 10.1%; in [3], 102 ± 5.66%; in test [4] it was 125 ± 10.5%; in test [5], 87.7 ± 1.8%; in test [6] it was 99 ± 6.01%. In [7], the viability at 10 µM was 88.2 ± 19.9%.

On to `COc1ccc(Nc2nc3ccc([N+](=O)[O-])cc3nc2Nc2ccc(OC)cc2)cc1` [TD602, N^2,N^3-bis(4-methoxyphenyl)-6-nitroquinoxaline-2,3-diamine], for which the viability at 1 µM in test [1] was found to be 42 ± 1.1%; in test [2] it was 47.4 ± 2.4%; in test [3] it was 112 ± 3.97%; in [4], 98.1 ± 5.9%; in test [5], 58.3 ± 9.2%; in test [6], 104 ± 2.31%. The viability at 1 µM in [7] came out at 120 ± 5.8%. Further, the viability at 10 µM in [1] was found to be 9.8%; in test [2] it was 10 ± 0.8%; in [3], 7.14 ± 4.42%; in [4], 8.1 ± 0.4%; in test [5] it was 12 ± 0.5%; in [6], 0.89 ± 0.41%. Also, the viability at 10 µM in test [7] was found to be 2.05 ± 2.45%.

On to `COc1ccc(Nc2nc3ccc([N+](=O)[O-])cc3nc2Nc2cccc(O)c2)cc1` [TD612, 3-(2-(4-methoxyphenylamino)-6-nitroquinoxalin-3-ylamino)phenol], for which the viability at 1 µM in [1] amounted to 82.7 ± 2.4%; in test [2], 90.6 ± 18.2%; in [3], 107 ± 4.84%; in [4], 69.4 ± 6.8%; in [5], 97.3 ± 13.4%; in test [6] it was 107 ± 2.62%. The viability at 1 µM in test [7] turned out to be 105 ± 3.4%. Also, the viability at 10 µM in [1] turned out to be 13.4 ± 0.7%; in test [2] it was 10.3 ± 1.2%; in [3] it was 22.5 ± 11.8%; in [4], 38 ± 1.4%; in [5], 12.8 ± 0.4%; in [6] it was 12.9 ± 1.2%. Also, the viability at 10 µM in test [7] was determined as 64.7 ± 4%. Besides, the “minimal concentration for PP2A activation” value in test [9] is recorded as below 100 nM.

Regarding `O=[N+]([O-])c1ccc2nc(Nc3cccc(O)c3)c(Nc3cccc(O)c3)nc2c1` [TD613, 3-(2-(3-hydroxyphenylamino)-6-nitroquinoxalin-3-ylamino)phenol], the viability at 1 µM in [1] was found to be 86 ± 0.5%; in [2], 105 ± 3.4%; in test [3] it was 108 ± 1.99%; in [4], 75.5 ± 7.9%; in test [5] it was 69.9 ± 60.7%; in test [6], 99.45 ± 0.5%. For the same molecule, the viability at 1 µM in test [7] was 116 ± 7.2%. Besides, the viability at 10 µM amounted to 24.8 ± 2% in test [1]; 9.5 ± 0.7% in test [2]; 11.6 ± 1.38% in [3]; 7 ± 0.3% in test [4]; 12 ± 0.5% in [5]; 18.8 ± 0.22% in test [6]. In addition, the viability at 10 µM in test [7] came to 80.9 ± 3.8%.

With `O=[N+]([O-])c1ccc2nc(Nc3cccc(Br)c3)c(Nc3cccc(Br)c3)nc2c1` [TD618, N^2,N^3-bis(3-bromophenyl)-6-nitroquinoxaline-2,3-diamine], the viability at 1 µM stood at 48.3 ± 4.8% in test [1], 53.2 ± 6.3% in test [2], 49.6 ± 9.4% in test [4] and 36.6 ± 1.6% in test [5]. Further, the viability at 10 µM in [1] came out at 31.9 ± 5%; in [2], 26.9 ± 7%; in test [4], 16.7 ± 1.1%; in test [5], 20.4 ± 3.5%. The “minimal concentration to disrupt SET-PP2Ac binding” value in [8] is reported as above 200 nM. Besides, the “minimal concentration for PP2A activation” value in [9] is above 200 nM.
